“Also recorded” adds a separate entry of the source. Where two headings read alike, the source gives them in different places.
Legend:
HCT116 [1] = assay: MTS antiproliferative assay, HCT116 (with or without added metal ions); assay type: cell-based, human; conditions: for Selectivity index, calculated for HCT116: versus NHDF
Method: (§1) The cells were seeded in 96-well plates (Nunc) at a density of 3,500 cells/well (HCT116 and MCF-7) and 3,000 cells/well (NHDF) and incubated at 37° C for 24 h. The assay was performed following a 96 h incubation with varying concentrations of the compounds that were being tested. Then, 20 µL of CellTiter 96® AQueous One Solution-MTS (Promega) was added to each well (with 100 µL DMEM without phenol red) and incubated for 1 h at 37° C. The optical densities of the samples were analyzed at 490 nm using a multi-plate reader (Synergy 4, Bio Tek). Results were expressed as a percentage of the control and calculated as the inhibitory concentration (IC50) values (using GraphPad Prism 5). The IC50 parameter was defined as the compound concentration that was necessary to reduce the proliferation of cells to 50% of the untreated control. Each individual compound was tested in triplicate in a single experiment with each experiment being repeated three or four times.
(§2) The HCT116 and MCF-7 cells were seeded in 96-well plates (Nunc) at a density of 3,500 cells/well and incubated at 37° C for 24 h. The MTS assay was performed following a 96 h incubation with varying concentrations of the tested compounds. Additionally, a 20 µM solution of CuSO4, FeSO4 or FeCl3 was added into wells with the tested compounds. The results were expressed as a percentage of the control and calculated as the inhibitory concentration (IC50) values using GraphPad Prism 5. Each individual compound was tested in triplicate in a single experiment with each experiment being repeated three times.

MCF-7 = assay: MTS antiproliferative assay, MCF-7 (with or without added metal ions); assay type: cell-based, human; conditions: for improvement in cytotoxicity after interacting with Cu^2+: MCF-7 cells, 20 µM CuSO4; for Selectivity index, calculated for MCF-7: versus NHDF
Method: as §1, §2

NHDF [2] = assay: MTS cytotoxicity assay, normal fibroblasts; assay type: cell-based, human; conditions: Homo sapiens, NHDF, 96 h incubation
Method: as §1

MnSOD = assay: mRNA expression (Real-Time PCR) of MnSOD; assay type: cell-based, human; conditions: HCT116, TSC 1 µM, 12 or 24 h
Method: (§3) The HCT116 cells were seeded in 3 cm Petri dishes (Nunc) at a density of 0.5·10^6 cells/well and incubated overnight. Next, the medium was removed and solutions of TSC (1 μM) and DOX (5 μM) were added. After 12 or 24 h, total RNA was isolated from the cells using TRIzol Reagent (Ambion) according to the manufacturer’s instructions. cDNA synthesis was performed with 5 μg of total RNA using a GoScript™ Reverse Transcriptase kit (Promega) and Oligo(dT)23 Primers (Sigma). The Real-Time PCR was performed with a CTX96 Touch™ Real-Time PCR Detection System (Biorad) in a 20 μL reaction volume. The reaction consisted of PowerUp™ SYBR® Green Master Mix (Applied Biosystems), a primer pair mix (0.5 μM each) and 1 μL of cDNA. All primer pair sequences were purchased from Sigma-Aldrich and are listed in Supplementary Table 2. The experiment was performed under the following conditions: initial denaturation at 95° C for 120 sec; followed by 40 denaturation cycles at 95° C, 15 sec; annealing (primer-specific temperature for 30 sec) and extension at 72° C for 60 sec. Data was analyzed based on a comparison of the expression of the target genes to a reference gene – β-actin, using the 2^–ΔΔCT method. The experiments were performed at least three times.

p21 = assay: Western blot of p21; assay type: cell-based, human; conditions: HCT116, 1 µM
Method: (§4) The HCT116 cells were seeded in 3 cm Petri dishes (Nunc) at a density of 0.5·10^6 cells/well and incubated overnight. The next day, solutions of TSC (1 μM) and DOX (5 μM) were added and the cells incubated for 24 or 48 h. Cells were harvested by trypsinization and washed with cold PBS. Next, the cells were centrifuged and suspended in an RIPA buffer (Thermo Scientific) containing Halt Protease Inhibitor Cocktail (Thermo Scientific), Halt Phosphatase Inhibitor Cocktail (Thermo Scientific) along with 0.5 M EDTA and lysed for 20 min on ice. Then, the lysates were sonicated, centrifuged at 10,000 rpm for 10 min at 4° C and the supernatants were collected for further analysis. The protein concentration was determined using a Micro BCA™ Protein Assay Kit (Thermo Scientific) according to the manufacturer’s instructions. Equal amounts of the proteins (20 μg) were electrophoresed on SDS-Page gels and transferred onto a nitrocellulose membranes. The membranes were blocked in 5% non-fat milk prepared in PBS containing 0.1% Tween-20 (TPBS) for 1 h. After blocking, the membranes were incubated with specific primary antibodies: cdc2 (#POH1, Cell Signaling), p21^Waf1/Cip1 (#12D1, Cell Signaling), p53 (#1C12, Cell Signaling) and β-Actin (#8H10D10, Cell Signaling) overnight at 4° C, then washed and incubated with horseradish peroxidase (HRP)-conjugated secondary antibodies for 1h at room temperature. All of antibodies were diluted 1:1000 in 5% milk in TPBS. Finally, the membranes were washed and incubated with a SuperSignal™ West Pico Chemiluminescent Substrate (Thermo Scientific). The chemiluminescence signals were captured using a ChemiDoc™ XRS+ System (BioRad). The experiments were performed at least three times. Densitometric analysis was performed using ImageJ 1.41 software (Wayne Rasband, National Institutes of Health, USA).

cdc2 = assay: Western blot of cdc2; assay type: cell-based, human; conditions: HCT116, 1 µM
Method: as §4

calf-thymus DNA (CT-DNA) = assay: Intercalation, absorption spectra with CT-DNA; assay type: binding; conditions: for % hypochromism / Changes in absorbance / Δε: bound to CT-DNA; for blue/red shift: wavelengths of maximum absorption, compound alone vs DNA-bound
Method: For the DNA binding studies, Calf-thymus DNA (CT-DNA) was purchased from Sigma Aldrich. The lyophilized CT-DNA was dissolved in 10 mM Tris-HCl, pH 7.9, mixed gently and left overnight at 4° C. The purity of the CT-DNA solution was determined by measuring the ratio of UV absorbance at 260 and 280 nm. […] Then, the concentration of CT-DNA was determined from the absorbance at 260 nm using an extinction coefficient of 6600 M^–1cm^–1. The tested TSC and DOX were dissolved in DMSO to a concentration of 8.35 mM, which was then used as the stock solution for preparing the various concentrations (25, 12.5, 6 and 3 µM) in 1 mL in 10 mM of Tris-HCl (pH 7.9). Afterwards, 18 µM CT-DNA was added to the prepared solutions, which were incubated for 1.5 h at 37° C with occasional vortexing. The absorption spectra were measured using a Hitachi U-2900 spectrophotometer in range of 200–500 nm. All absorption spectra were imported and compared in OriginPro 8.0.

HCT116 cells = assay: Cell cycle assay (Muse Cell-Cycle Kit); assay type: cell-based, human; conditions: HCT116, TSC 1 µM, 48 h
Method: The HCT116 cells were seeded in 3 cm Petri dishes (Nunc) at a density of 0.25·10^6 cells/well and incubated at 37° C for 24 h. […] After a 48 h treatment, assays were performed using a Muse Cell-Cycle Kit (Millipore) according to the manufacturer’s instructions. Briefly, cells were collected, washed with cold PBS and centrifuged at 300 g. Then, the cells were fixed in ice cold 70% ethanol and stored at –20° C overnight. Afterwards, the cells were centrifuged and resuspended in 200 μL of Muse™ Cell Cycle Reagent and incubated for 30 min at room temperature in the dark. After staining, the cells were processed for cell cycle analysis using a Muse Cell Analyzer (Millipore). The experiments were performed at least three times.

HCT116 [3] = test system: HCT116; design: method as in PMID 25329549; conditions: 96 h incubation, MTS; cited from earlier work
NHDF [4] = test system: NHDF; design: method as in PMID 25329549; conditions: 96 h incubation, MTS; cited from earlier work
CAT = assay: mRNA expression (Real-Time PCR) of CAT; assay type: cell-based, human; conditions: HCT116, TSC 1 µM, after the first 12 h
Method: as §3

Ndrg1 = assay: mRNA expression (Real-Time PCR) of Ndrg1; assay type: cell-based, human; conditions: HCT116, TSC 1 µM, 24 h
Method: as §3

[5] = Homo sapiens, HCT-116, 96 h, 20 µM CuSO4 added, read-out: Activity - IC50 HCT116+ Cu^2+
[6] = Homo sapiens, HCT-116, 96 h, 20 µM FeCl3 added, read-out: Activity - IC50 HCT116+ Fe^3+
[7] = Homo sapiens, MCF7, 96 h, 20 µM CuSO4 added, read-out: Activity - IC50 MCF-7+ Cu^2+
[8] = Homo sapiens, MCF7, 96 h, 20 µM FeCl3 added, read-out: Activity - IC50 MCF-7+ Fe^3+
[9] = Homo sapiens, MCF7, 96 h incubation, MTS, read-out: Activity - IC50 MCF-7

## Fc1ccc(N2CCN(C(=S)NN=Cc3ccc4ccccc4n3)CC2)cc1 [Compound 1b, 4-(4-fluorophenyl)-N’-[(quinolin-2-yl)methylidene]piperazine-1-carbothiohydrazide]
HCT116 [1]; [5]
  IC50: 19.7 ± 0.53 nM
HCT116 [1]; [6]
  IC50: 72.4 ± 12.9 nM
HCT116 [1]; Homo sapiens, HCT-116, 96 h incubation, MTS, read-out: Activity - IC50 HCT116
  IC50: 62.2 ± 8.95 nM
HCT116 [1]
  Selectivity index, calculated for HCT116: 1.8
MCF-7; [7]
  IC50: 3.78 ± 0.88 nM
MCF-7; [8]
  IC50: 25 ± 2.16 nM
MCF-7; [9]
  IC50: 31.4 ± 3.38 nM
MCF-7
  improvement in cytotoxicity after interacting with Cu^2+: eight-fold
  Selectivity index, calculated for MCF-7: 3.6
NHDF [2]
  IC50: 114 ± 10.3 nM
MnSOD
  mRNA expression of MnSOD: large drop
p21
  expression of p21 protein (densitometric analysis): increased p21 level, but in a lesser degree
cdc2
  expression of cdc2 protein (densitometric analysis): lowest values; also recorded: strongest decreasing effect
calf-thymus DNA (CT-DNA)
  % hypochromism: 24.2%
  Changes in absorbance: hypochromism
  Δε: 2313.3 M⁻¹ cm⁻¹
  blue/red shift: 10 nm

## CN(C)C(=S)NN=C(c1ccccn1)c1ccccn1 [Dp44mT, di-2-pyridylketone 4,4-dimethyl-3-thiosemicarbazone, reference compound]
HCT116 [1]; [5]
  IC50: 0.31 ± 0.06 nM
HCT116 [1]; [6]
  IC50: 1.77 ± 0.36 nM
HCT116 [1]
  Selectivity index, calculated for HCT116: 10985.7
MCF-7; [7]
  IC50: 0.13 ± 0.04 nM
MCF-7; [8]
  IC50: 0.96 ± 0.32 nM
MCF-7; [9]
  IC50: 0.38 ± 0.15 nM
MCF-7
  Selectivity index, calculated for MCF-7: 40473.7
p21
  expression of p21 protein (densitometric analysis): marked up-regulation
cdc2
  expression of cdc2 protein (densitometric analysis): lowest values
HCT116 cells
  cells in S phase: 41%
calf-thymus DNA (CT-DNA); CT-DNA, absorption spectra
  ability to intercalate DNA: very weak
calf-thymus DNA (CT-DNA)
  % hypochromism: 8.2%
  Changes in absorbance: hypochromism
  Δε: 1673.3 M⁻¹ cm⁻¹
  blue/red shift: 2 nm
HCT116 [3]
  IC50: 1.4 ± 0.13 nM
NHDF [4]
  IC50: 15400 nM

## S=C(NN=C(c1ccccn1)c1ccccn1)N1CCN(c2ccccn2)CC1 [Compound 3b]
HCT116 [1]; 96 h, 20 µM CuSO4 added, read-out: Activity - IC50 HCT116+ Cu^2+
  IC50: 1.56 ± 0.44 nM
HCT116 [1]; 96 h, 20 µM FeCl3 added, read-out: Activity - IC50 HCT116+ Fe^3+
  IC50: 9.94 ± 2.69 nM
MCF-7; 96 h, 20 µM CuSO4 added, read-out: Activity - IC50 MCF-7+ Cu^2+
  IC50: 0.54 ± 0.15 nM
MCF-7; 96 h, 20 µM FeCl3 added, read-out: Activity - IC50 MCF-7+ Fe^3+
  IC50: 5.35 ± 0.66 nM
MCF-7; 96 h incubation, MTS, read-out: Activity - IC50 MCF-7
  IC50: 4.1 ± 0.93 nM
MCF-7
  improvement in cytotoxicity after interacting with Cu^2+: eight-fold
MnSOD
  mRNA expression of MnSOD: large drop
CAT
  mRNA expression of CAT: higher
Ndrg1
  mRNA expression of Ndrg1: strongest
p21
  expression of p21 protein (densitometric analysis): increased p21 level, but in a lesser degree
cdc2
  expression of cdc2 protein (densitometric analysis): strongest decreasing effect
HCT116 cells; untreated 72%
  cells in G0/G1 phase: 39%
calf-thymus DNA (CT-DNA)
  % hypochromism: 31.9%
  Changes in absorbance: hypochromism
  Δε: 6133.3 M⁻¹ cm⁻¹
  blue/red shift: 5 nm
HCT116 [3]
  IC50: 2.06 ± 0.88 nM
NHDF [4]
  IC50: 160 ± 40 nM

Reference: PMC5915149, “The role of oxidative stress in activity of anticancer thiosemicarbazones” (Oncotarget, 2018)
